Assay results reported in ChEMBL document CHEMBL4321885, “Biomimetic Macrocyclic Inhibitors of Human Cathepsin D: Structure-Activity Relationship and Binding Mode Analysis” (J Med Chem, 2020).
In brackets after ≈: the same amount, converted by molar mass. Activity calls are given as the source filed them. No cut-off for these calls is given here.

Key:
[1] = molecular target: Cathepsin D (Homo sapiens, UniProt P07339); experiment: Inhibition of human placenta CatD using Abz-Lys-Pro-Ala-Glu-Phe-Nph-Ala-Leu as substrate preincubated for 10 mins followed by substrate addition and measured by FRET assay
[2] = Solubility of the compound in pH 7.4 phosphate buffered saline by HPLC-MS analysis; type: physicochemical
[3] = test system: NHDF; experiment: Cytotoxicity against NHDF cells assessed as reduction in cell viability up to 100 uM measured after 72 hrs by Celltiter-glo assay; type: cell-based; details: human
[4] = test system: PBMC; experiment: Cytotoxicity against human PBMC cells assessed as reduction in cell viability up to 100 uM measured after 72 hrs by Celltiter-glo assay; type: cell-based
[5] = molecular target: T1, Renin (Homo sapiens) (UniProt P00797); experiment: Inhibition of recombinant human N-terminal FLAG-tagged renin (67 to 406 residues) expressed in HEK cells at 50 nM using Arg-Glu(EDANS)-Ile-His-Pro-Phe-His-Leu-Val-Ile-His-Thr-Lys(Dabcyl)-Arg as substrate preincubated for 10 mins followed by substrate addition and measured by FRET assay
T1 sequence (whole entry): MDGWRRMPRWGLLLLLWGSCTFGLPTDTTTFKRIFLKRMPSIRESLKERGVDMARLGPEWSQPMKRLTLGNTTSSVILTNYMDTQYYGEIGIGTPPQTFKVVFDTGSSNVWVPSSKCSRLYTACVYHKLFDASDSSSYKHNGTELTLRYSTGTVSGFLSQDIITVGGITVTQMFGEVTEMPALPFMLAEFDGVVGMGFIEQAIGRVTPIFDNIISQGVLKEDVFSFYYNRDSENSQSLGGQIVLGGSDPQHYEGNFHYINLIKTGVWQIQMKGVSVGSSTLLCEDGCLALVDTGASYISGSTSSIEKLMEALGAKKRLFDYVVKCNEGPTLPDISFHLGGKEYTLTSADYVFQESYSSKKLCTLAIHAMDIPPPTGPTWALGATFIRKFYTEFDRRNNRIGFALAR

[6] = molecular target: Beta-secretase 1 (Homo sapiens) (UniProt P56817); experiment: Inhibition of recombinant human C-terminal 10His-tagged BACE1 expressed in mouse NS0 cells at 50 nM using Mca-Ser-Glu-Val-Asn-Leu-Asp-Ala-Glu-Phe-Arg-Lys(Dnp)-Arg-Arg as substrate preincubated for 10 mins followed by substrate addition and measured by FRET assay
[7] = molecular target: Protease (Human immunodeficiency virus 1) (UniProt Q9YQ12); experiment: Inhibition of HIV1 protease at 50 nM using Abz-Tyr-Ile-Nle-Nph-Gln-Arg as substrate preincubated for 10 mins followed by substrate addition and measured by FRET assay
[8] = test system: Ixodes ricinus; experiment: Inhibition of Ixodes ricinus CatD expressed in Escherichia coli BL21(DE3) at 50 nM using Abz-Lys-Pro-Ala-Glu-Phe-Nph-Ala-Leu as substrate preincubated for 10 mins followed by substrate addition and measured by FRET assay
[9] = molecular target: Saccharopepsin (Saccharomyces cerevisiae S288c) (UniProt P07267); experiment: Inhibition of Baker's yeast proteinase A at 50 nM using Abz-Lys-Pro-Ala-Glu-Phe-Nph-Ala-Leu as substrate preincubated for 10 mins followed by substrate addition and measured by FRET assay
[10] = molecular target: T2, Papain (Carica papaya, UniProt P00784); experiment: Stability of the compound assessed as papaya papain-mediated compound hydrolysis at 25 ug measured after 18 hrs by HPLC analysis; type: ADME
T2 sequence (P00784 whole entry): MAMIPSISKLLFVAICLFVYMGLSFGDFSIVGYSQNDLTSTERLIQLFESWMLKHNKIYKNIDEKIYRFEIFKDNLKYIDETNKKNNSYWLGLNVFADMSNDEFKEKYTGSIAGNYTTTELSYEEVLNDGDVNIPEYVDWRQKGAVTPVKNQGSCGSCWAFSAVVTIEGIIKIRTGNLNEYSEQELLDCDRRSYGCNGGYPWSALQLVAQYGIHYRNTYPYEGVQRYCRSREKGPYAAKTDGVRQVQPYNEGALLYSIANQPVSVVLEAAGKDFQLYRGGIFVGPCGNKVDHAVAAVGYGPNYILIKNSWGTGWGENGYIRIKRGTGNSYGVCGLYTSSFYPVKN

[11] = Stability of the compound assessed as bovine trypsin-mediated compound hydrolysis at 25 ug measured after 18 hrs by HPLC analysis; type: ADME, Bos taurus; details: cattle
[12] = Stability of the compound assessed as bovine chymotrypsin-mediated compound hydrolysis at 25 ug measured after 18 hrs by HPLC analysis; type: ADME, Bos taurus; details: cattle
[13] = molecular target: T3, Thermolysin (Geobacillus stearothermophilus, UniProt P43133); experiment: Stability of the compound assessed as Geobacillus stearothermophilus thermolysin-mediated compound hydrolysis at 25 ug measured after 18 hrs by HPLC analysis; type: ADME
T3 sequence (P43133 whole entry): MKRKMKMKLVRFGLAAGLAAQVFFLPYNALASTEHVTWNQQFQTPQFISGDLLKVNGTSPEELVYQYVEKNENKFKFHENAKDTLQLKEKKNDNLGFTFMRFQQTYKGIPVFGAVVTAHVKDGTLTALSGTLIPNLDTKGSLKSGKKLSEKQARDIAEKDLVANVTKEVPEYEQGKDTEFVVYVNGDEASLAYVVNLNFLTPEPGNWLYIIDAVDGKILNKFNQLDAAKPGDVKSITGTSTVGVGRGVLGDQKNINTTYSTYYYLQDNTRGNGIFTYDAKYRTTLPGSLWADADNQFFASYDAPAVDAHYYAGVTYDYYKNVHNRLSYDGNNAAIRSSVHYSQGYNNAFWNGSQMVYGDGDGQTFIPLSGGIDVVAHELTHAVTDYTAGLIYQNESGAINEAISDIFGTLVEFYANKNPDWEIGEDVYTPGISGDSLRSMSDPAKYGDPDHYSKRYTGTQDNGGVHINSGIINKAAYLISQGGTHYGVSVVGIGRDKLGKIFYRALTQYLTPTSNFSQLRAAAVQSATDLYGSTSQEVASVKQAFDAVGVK

[14] = molecular target: T4, Papain (Carica papaya) (UniProt P00784); experiment: Inhibition of papaya papain at 1 uM using Z-Phe-Arg-AMC as substrate preincubated for 10 mins followed by substrate addition and measured after 20 mins by fluorescence assay
T4 sequence (whole entry): T2 sequence (P00784 whole entry)

[15] = organism: Bos taurus; experiment: Inhibition of bovine trypsin at 1 uM using Z-Phe-Arg-AMC as substrate preincubated for 10 mins followed by substrate addition and measured after 20 mins by fluorescence assay
[16] = organism: Bos taurus; experiment: Inhibition of bovine chymotrypsin at 1 uM using Z-Phe-Arg-AMC as substrate preincubated for 10 mins followed by substrate addition and measured after 20 mins by fluorescence assay
[17] = molecular target: T5, Thermolysin (Geobacillus stearothermophilus) (UniProt P43133); experiment: Inhibition of Geobacillus stearothermophilus thermolysin at 1 uM using Abz-Ala-Gly-Leu-Ala-nitro-benzylamide as substrate preincubated for 10 mins followed by substrate addition and measured after 20 mins by fluorescence assay
T5 sequence (whole entry): T3 sequence (P43133 whole entry)

[18] = molecular target: T1, Renin (Homo sapiens); experiment: Inhibition of recombinant human N-terminal FLAG-tagged renin (67 to 406 residues) expressed in HEK cells at 5 uM using Arg-Glu(EDANS)-Ile-His-Pro-Phe-His-Leu-Val-Ile-His-Thr-Lys(Dabcyl)-Arg as substrate preincubated for 10 mins followed by substrate addition and measured by FRET assay
[19] = molecular target: Beta-secretase 1 (Homo sapiens) (UniProt P56817); experiment: Inhibition of recombinant human C-terminal 10His-tagged BACE1 expressed in mouse NS0 cells at 5 uM using Mca-Ser-Glu-Val-Asn-Leu-Asp-Ala-Glu-Phe-Arg-Lys(Dnp)-Arg-Arg as substrate preincubated for 10 mins followed by substrate addition and measured by FRET assay
[20] = molecular target: Protease (Human immunodeficiency virus 1) (UniProt Q9YQ12); experiment: Inhibition of HIV1 protease at 5 uM using Abz-Tyr-Ile-Nle-Nph-Gln-Arg as substrate preincubated for 10 mins followed by substrate addition and measured by FRET assay
[21] = Apparent permeability in human Caco2 cells at 5 uM measured after 5 hrs by LC-MS analysis; type: ADME, cell-based; details: Caco-2

Protease (Human immunodeficiency virus 1), sequence (Q9YQ12 as listed by the source): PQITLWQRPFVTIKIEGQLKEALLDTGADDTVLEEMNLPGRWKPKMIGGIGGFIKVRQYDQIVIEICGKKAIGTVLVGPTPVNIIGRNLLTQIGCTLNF
Beta-secretase 1 (Homo sapiens), sequence (P56817 whole entry): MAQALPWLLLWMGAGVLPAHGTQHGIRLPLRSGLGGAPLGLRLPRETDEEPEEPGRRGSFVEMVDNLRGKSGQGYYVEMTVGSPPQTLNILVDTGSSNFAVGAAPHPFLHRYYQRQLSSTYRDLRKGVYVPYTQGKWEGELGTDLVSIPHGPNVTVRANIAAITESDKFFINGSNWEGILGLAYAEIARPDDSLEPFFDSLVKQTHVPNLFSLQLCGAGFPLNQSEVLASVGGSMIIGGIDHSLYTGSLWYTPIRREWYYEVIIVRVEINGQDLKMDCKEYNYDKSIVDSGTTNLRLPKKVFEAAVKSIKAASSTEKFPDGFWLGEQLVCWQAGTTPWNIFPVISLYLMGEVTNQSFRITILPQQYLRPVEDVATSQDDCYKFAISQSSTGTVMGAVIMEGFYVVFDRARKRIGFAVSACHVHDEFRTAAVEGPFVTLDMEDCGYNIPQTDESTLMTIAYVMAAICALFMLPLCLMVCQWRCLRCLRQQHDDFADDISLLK
Saccharopepsin (Saccharomyces cerevisiae S288c), sequence (P07267 whole entry): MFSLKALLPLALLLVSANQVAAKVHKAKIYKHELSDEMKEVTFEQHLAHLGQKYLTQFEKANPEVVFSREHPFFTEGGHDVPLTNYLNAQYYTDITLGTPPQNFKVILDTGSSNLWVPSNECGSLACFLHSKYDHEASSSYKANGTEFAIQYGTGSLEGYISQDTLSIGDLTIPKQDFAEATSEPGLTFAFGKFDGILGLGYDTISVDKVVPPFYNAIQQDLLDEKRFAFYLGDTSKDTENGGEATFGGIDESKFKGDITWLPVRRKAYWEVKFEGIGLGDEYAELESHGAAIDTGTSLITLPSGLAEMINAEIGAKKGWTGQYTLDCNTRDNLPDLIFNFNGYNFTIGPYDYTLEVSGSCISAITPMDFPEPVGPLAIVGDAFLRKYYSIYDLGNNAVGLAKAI
Cathepsin D, sequence (P07339 65-162 limits assumed): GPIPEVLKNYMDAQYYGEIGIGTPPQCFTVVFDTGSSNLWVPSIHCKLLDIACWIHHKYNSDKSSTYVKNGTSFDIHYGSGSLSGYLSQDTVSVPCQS
Cathepsin D, sequence (P07339 169-412 limits assumed): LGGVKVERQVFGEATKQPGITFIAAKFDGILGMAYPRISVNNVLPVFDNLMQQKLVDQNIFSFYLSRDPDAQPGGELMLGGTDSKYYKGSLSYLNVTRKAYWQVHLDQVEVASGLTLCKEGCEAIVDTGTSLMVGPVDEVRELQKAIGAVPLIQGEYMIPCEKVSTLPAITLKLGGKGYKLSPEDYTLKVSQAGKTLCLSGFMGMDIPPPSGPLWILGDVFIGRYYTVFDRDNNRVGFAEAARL

Row | IC50 [1] | inhibition [5] | inhibition [6] | inhibition [7] | inhibition [8] | inhibition [9] | Stability [10] | Stability [11] | Stability [12] | Stability [13] | inhibition [14] | inhibition [15] | inhibition [16] | inhibition [17] | inhibition [18] | inhibition [19] | inhibition [20] | Compound | Activity [3] | Activity [4] | other results
1 | 1.1 nM | inactive | inactive | inactive | Active | Active | Stable | Stable | Stable | Stable | inactive | inactive | inactive | inactive | Active | Active | Active | O=C1C[C@H](O)[C@H](Cc2ccccc2)NC(=O)CCCCCCCCCCCNC(=O)[C@H](Cc2cccnc2)N1 | Non-Toxic | Non-Toxic | solubility [2]: 342 µg/mL (≈ 637 µM)
2 | 2.5 nM | inactive | inactive | inactive | Active | Active | Stable | Stable | Stable | Stable | inactive | inactive | inactive | inactive | Active | Active | Active | CC(C)[C@@H]1NC(=O)C[C@H](O)[C@H](Cc2ccccc2)NC(=O)OCCCCCCCCCCCNC1=O | Non-Toxic | Non-Toxic | Papp at 5 h, 5 µM [21]: 1.68 ×10⁻⁶ cm/s
